Experimental data published in paper PMC12680189, “Aotaphenazine, a rare hydrophenazine, targets topoisomerase II with anticancer efficacy: In silico to in vitro evidence” (PLOS One, 2025).

Target: Topoisomerase II (Topo II)
Assay: ELISA-based Topo II inhibition assay kit (Abcam), recombinant human enzyme, colorimetric
Type: biochemical

- IC50: 0.045 µM
Compound: O=c1oc(=O)c2c(ccc3nc4ccccc4[nH]c32)c1-c1ccccc1 [aotaphenazine]
